Data: patent US11390604B2 (Hoffmann-La Roche Inc., priority 2019, dated 2022)
Structures can show the parent of a compound that is named as a salt. Where two headings read alike, the source gives them in different places.

System: Acinetobacter baumannii ATCC 17961
Assay: Antimicrobial susceptibility testing: 90% growth inhibitory concentration (IC90) determination
Assay type: cell-based
Experimental: Antimicrobial Susceptibility Testing:
90% Growth Inhibitory Concentration (IC90) Determination
The in vitro antimicrobial activity of the compounds was determined according to the following procedure:
The assay used a 10-points Iso-Sensitest broth medium to measure quantitatively the in vitro activity of the compounds against Acinetobacter baumannii ATCC 17961.
Stock compounds in DMSO were serially twofold diluted (e.g. range from 50 to 0.097 μM final concentration) in 384 wells microtiter plates and inoculated with 49 μl the bacterial suspension in Iso-Sensitest medium to have a final cell concentration of ˜5×10^(5) CFU/ml in a final volume/well of 50 ul/well. Microtiter plates were incubated at 35±2° C.
Bacterial cell growth was determined with the measurement of optical density at X=600 nm each 20 minutes over a time course of 16 h. Growth inhibition was calculated during the logarithmic growth of the bacterial cells with determination of the concentration inhibiting 50% (IC50) and 90% (IC90) of the growth.
Table 1 provides the 90% growth inhibitory concentrations (IC90) in micromoles per liter of the compounds of present disclosure obtained against the strain Acinetobacter baumannii ATCC 17961.

[1] = ATCC17961, Acinetobacter baumannii ATCC 17961, Iso-Sensitest broth, read-out: ATCC 17961 IC90

Structure (SMILES) | IC90 [1] [nM] | IC90 (Acinetobacter baumannii, ATCC17961, read-out: ATCC 17961 IC90, Acinetobacter baumannii ATCC 17961, Iso-Sensitest broth) [nM]
C#CCn1cc(-c2cnc(C(=O)Nc3ccc(C(=O)NCCOCC(C)(C)N)c(Cl)c3)n2C)c(C(F)(F)F)n1 [Example 46, N-(4-((2-(2-amino-2-methylpropoxy)ethyl)carbamoyl)-3-chlorophenyl)-1-methyl-5-(1-(prop-2-yn-1-yl)-3-(trifluoromethyl)-1H-pyrazol-4-yl)-1H-imidazole-2-carboxamide 2,2,2-trifluoroacetate] | 263 | 
C#CCn1cc(-c2cnc(C(=O)Nc3ccc(C(=O)NCCOCCN)c(Cl)c3)n2C)c(C(F)(F)F)n1 [Example 48, N-(4-((2-(2-aminoethoxy)ethyl)carbamoyl)-3-chlorophenyl)-1-methyl-5-(1-(prop-2-yn-1-yl)-3-(trifluoromethyl)-1H-pyrazol-4-yl)-1H-imidazole-2-carboxamide trifluoroacetate] | 231 | 
Cn1c(-c2c[nH]nc2C(F)(F)F)cnc1C(=O)Nc1ccc(C(=O)N2CCNCC2)c(Cl)c1 [Example 35, N-[3-chloro-4-(piperazine-1-carbonyl)phenyl]-1-methyl-5-[3-(trifluoromethyl)-1H-pyrazol-4-yl]imidazole-2-carboxamide hydrochloride] |  | 3700
Cn1c(-c2cn(CC3CCC3)nc2C(F)(F)F)cnc1C(=O)Nc1ccc(C(=O)N[C@H]2[C@@H]3CN(C(=O)C4CCNCC4)C[C@@H]32)c(Cl)c1 [Example 174, N-(3-chloro-4-(((1R,5S,6s)-3-(piperidine-4-carbonyl)-3-azabicyclo[3.1.0]hexan-6-yl)carbamoyl)phenyl)-5-(1-(cyclobutylmethyl)-3-(trifluoromethyl)-1H-pyrazol-4-yl)-1-methyl-1H-imidazole-2-carboxamide formate] | 250 | 
Cn1c(-c2cn(C3CC3)nc2C(F)(F)F)cnc1C(=O)Nc1ccc(C(=O)N2CC[C@H](CN)C2)c(Cl)c1 [Example 195, (R)-N-(4-(3-(aminomethyl)pyrrolidine-1-carbonyl)-3-chlorophenyl)-5-(1-cyclopropyl-3-(trifluoromethyl)-1H-pyrazol-4-yl)-1-methyl-1H-imidazole-2-carboxamide hydrochloride] | 202 | 
CCc1cc(NC(=O)c2ncc(-c3cn(Cc4cccnc4)nc3C(F)(F)F)n2C)ccc1C(=O)N1CCN(C(=O)NCC2(O)CNC2)CC1 [Example 162, 4-[2-ethyl-4-[[1-methyl-5-[1-(pyridin-3-ylmethyl)-3-(trifluoromethyl)pyrazol-4-yl]imidazole-2-carbonyl]amino]benzoyl]-N-[(3-hydroxyazetidin-3-yl)methyl]piperazine-1-carboxamide;formic acid] | 1470 | 
C#CCn1cc(-c2cnc(C(=O)Nc3ccc(C(=O)N4CCN(C(=O)N[C@H]5[C@@H]6CNC[C@@H]65)CC4)c(Cl)c3)n2C)c(C(F)(F)F)n1 [Example 87, 4-[2-chloro-4-[[1-methyl-5-[1-prop-2-ynyl-3-(trifluoromethyl)pyrazol-4-yl]imidazole-2-carbonyl]amino]benzoyl]-N-[rac-(1R,5S)-3-azabicyclo[3.1.0]hexan-6-yl]piperazine-1-carboxamide] | 216 | 
Cn1c(-c2cn(CC(F)F)nc2C(F)(F)F)cnc1C(=O)Nc1ccc(S(=O)(=O)N2CCNCC2)c(Cl)c1 [Example 188, N-(3-chloro-4-(piperazin-1-ylsulfonyl)phenyl)-5-(1-(2,2-difluoroethyl)-3-(trifluoromethyl)-1H-pyrazol-4-yl)-1-methyl-1H-imidazole-2-carboxamide hydrochloride] | 152 | 
C#CCn1cc(-c2cnc(C(=O)Nc3ccc(C(=O)N4CCN(C(=O)[C@@H]5C[C@@H](O)CN5)CC4)c(Cl)c3)n2C)c(C(F)(F)F)n1 [Example 36, N-[3-Chloro-4-[4-[(2S,4R)-4-hydroxypyrrolidine-2-carbonyl]piperazine-1-carbonyl]phenyl]-1-methyl-5-[1-prop-2-ynyl-3-(trifluoromethyl)pyrazol-4-yl]imidazole-2-carboxamide hydrochloride] | 286 | 

Further lines, with some results ahead:

IC90 [1] [nM] | Structure (SMILES) | IC90 (Acinetobacter baumannii, ATCC17961, read-out: ATCC 17961 IC90, Acinetobacter baumannii ATCC 17961, Iso-Sensitest broth) [nM]
420 | Cn1c(-c2cn(C3CC3(F)F)nc2C(F)(F)F)cnc1C(=O)Nc1ccc(C(=O)N2C[C@H]3CNC[C@@H]3C2)c(Cl)c1 (mixture of isomers) [Example 329, rac-N-(3-chloro-4-((3aR,6aR)-octahydropyrrolo[3,4-c]pyrrole-2-carbonyl)phenyl)-5-(1-(2,2-difluorocyclopropyl)-3-(trifluoromethyl)-1H-pyrazol-4-yl)-1-methyl-1H-imidazole-2-carboxamide formate] | 
313 | C=C(C)Cn1cc(-c2cnc(C(=O)Nc3ccc(C(=O)N4CCN(C(=O)[C@H]5[C@@H]6CNC[C@@H]65)CC4)c(Cl)c3)n2C)c(C(F)(F)F)n1 [Example 257, rac-N-(4-(4-((1R,5S,6r)-3-azabicyclo[3.1.0]hexane-6-carbonyl)piperazine-1-carbonyl)-3-chlorophenyl)-1-methyl-5-(1-(2-methylallyl)-3-(trifluoromethyl)-1H-pyrazol-4-yl)-1H-imidazole-2-carboxamide hydrochloride] | 
403 | Cn1c(-c2cn(C3CC3)nc2C(F)(F)F)cnc1C(=O)Nc1ccc(C(=O)N2CCN(C(=O)[C@@H]3C[C@@H](O)CN3)CC2)c(Cl)c1 [Example 321, N-(3-chloro-4-(4-((2S,4R)-4-hydroxypyrrolidine-2-carbonyl)piperazine-1-carbonyl)phenyl)-5-(1-cyclopropyl-3-(trifluoromethyl)-1H-pyrazol-4-yl)-1-methyl-1H-imidazole-2-carboxamide hydrochloride] | 
427 | Cn1c(-c2cn(C3CC3)nc2C(F)(F)F)cnc1C(=O)Nc1ccc(C(=O)N2CCN(S(=O)(=O)N3CCNCC3)CC2)c(Cl)c1 [Example 338, N-(3-chloro-4-(4-(piperazin-1-ylsulfonyl)piperazine-1-carbonyl)phenyl)-5-(1-cyclopropyl-3-(trifluoromethyl)-1H-pyrazol-4-yl)-1-methyl-1H-imidazole-2-carboxamide formate] | 
481 | Cn1c(-c2cn(CC(F)F)nc2C(F)(F)F)cnc1C(=O)Nc1ccc(C(=O)N2CCC23CN(C(=O)C2CCNCC2)C3)c(Cl)c1 [Example 363, N-(3-chloro-4-(6-(piperidine-4-carbonyl)-1,6-diazaspiro[3.3]heptane-1-carbonyl)phenyl)-5-(1-(2,2-difluoroethyl)-3-(trifluoromethyl)-1H-pyrazol-4-yl)-1-methyl-1H-imidazole-2-carboxamide formate] | 
281 | Cn1c(-c2cn(Cc3ccccc3)nc2C(F)(F)F)cnc1C(=O)Nc1ccc(C(=O)N2CCN(C(=O)C3CCNCC3)CC2)c(Cl)c1 [Example 241, 5-(1-benzyl-3-(trifluoromethyl)-1H-pyrazol-4-yl)-N-(3-chloro-4-(4-(piperidine-4-carbonyl)piperazine-1-carbonyl)phenyl)-1-methyl-1H-imidazole-2-carboxamide hydrochloride] | 
370 | Cn1c(-c2cn(C3CC3)nc2C(F)(F)F)cnc1C(=O)Nc1ccc(C(=O)N2CCN(C(=O)CCCN)CC2)c(Cl)c1 [Example 302, N-(4-(4-(4-aminobutanoyl)piperazine-1-carbonyl)-3-chlorophenyl)-5-(1-cyclopropyl-3-(trifluoromethyl)-1H-pyrazol-4-yl)-1-methyl-1H-imidazole-2-carboxamide hydrochloride] | 
